US12570638B2, “Fused imidazole derivatives as AHR antagonists” (Sail Biomedicines, Inc., priority 2020, dated 2026)

Tests used:
Format in all cases: in vitro ADME
[1] = Hepatocyte Stability Assay, human; settings: cryopreserved hepatocytes, read-out: Human hepatocyte clearance
Description: (§1) Preparation of working solutions: 10 mM stock solutions of test compound and positive control were prepared in DMSO. In separate conical tubes, the 10 mM solution of test compound and the positive control were diluted to 100 μM by combining 198 μL of 50% acetonitrile/50% water and 2 μL of 10 mM stock.
(§2) Preparation of Hepatocytes: Incubation medium (William's E Medium supplemented with GlutaMAX) and hepatocyte thawing medium were placed in a 37° C. water bath and allowed warming for at least 15 minutes prior to use. A vial of cryopreserved hepatocytes was transferred from storage, ensuring that vials remained at cryogenic temperatures until thawing process ensued. Cells were thawed by placing the vial in a 37° C. water bath and gently shaking the vials for 2 minutes. […] Using an AO/PI Staining, cells were counted and the viable cell density was determined. Cells with poor viability (<75% viability) were determined to be not acceptable for use. […]
(§3) Data Analysis: All calculations were carried out using Microsoft Excel. Peak areas were determined from extracted ion chromatograms. In vitro half-life (t1/2) of parent compound was determined by regression analysis of the percent parent disappearance vs. time curve.
(§4) The in vitro half-life (in vitro t1/2) was determined from the slope value: in vitro t1/2=0.693/k […]

[2] = Hepatocyte Stability Assay, rat; settings: cryopreserved hepatocytes, read-out: Rat hepatocyte clearance
Description: as §1, §2, §3, §4

[3] = Plasma Protein Binding Determination with Ultracentrifugation Method; settings: human plasma, read-out: Human plasma protein binding (% bound)
Description: The frozen plasma (stored at −80° C.) was thawed in a 37° C. water bath, followed by centrifugation at 3,220 g for 10 minutes to remove clots. The supernatant was removed into a new tube as the spun plasma. The spun plasma was pre-warmed in a 37° C. water bath for 10 minutes. The stock solutions of test compounds were diluted to 200 μM in DMSO, and then spiked into the plasma. Duplicate samples were prepared. The final concentration of compound was 1.0 μM. The final concentration of organic solvent was 0.5%. Warfarin was used as positive control in the assay. 1.0 mL of the spiked plasma was transferred to a new balance ultracentrifuge tube. Samples were incubated at 37° C., 5% CO2 for 30 minutes. After incubation, the balance ultracentrifuge tubes were centrifuged at 600,000 g for 5.5 hours at 37° C. […]
Data Analysis: All calculations were carried out using Microsoft Excel. The concentrations of test compound in plasma samples and post-ultracentrifugation plasma was determined from peak areas. The percentages of test compound bound was calculated as follows: […]

CLint scaled at 1 μM [1] [mL/min/kg] | CLint scaled at 1 μM [2] [mL/min/kg] | fraction unbound at 30 min, 1 μM [3] | SMILES
< 20 | – | – | Cn1nccc1C(=O)Nc1ccc2nc(-c3ccccc3C(F)(F)F)[nH]c2c1 [A, 1-methyl-N-(2-(2-(trifluoromethyl)phenyl)-1H-benzo[d]imidazol-6-yl)-1H-pyrazole-5-carboxamide]
< 20 | < 20 | < 0.25 | Cn1ncnc1C(=O)Nc1ccc2nc(-c3ccccc3C(F)(F)F)[nH]c2c1 [Compound H, 1-methyl-N-(2-(2-(trifluoromethyl)phenyl)-1H-benzo[d]imidazol-6-yl)-1H-1,2,4-triazole-5-carboxamide]
